The record followed here is US20260284048A1, “INHIBITOR OF MEGAKARYOCYTE DIFFERENTIATION AND MATURATION” (OTSUKA PHARMACEUTICAL CO., LTD., priority 2023, published 2026).

What all share (format): cell-based
In assay [1] the test system is PDE3A and SLFN12. Description: Complex formation of PDE3A and SLFN12 (immunoprecipitation using anti-PDE3A antibody). Particulars: PFSK-1 and HeLa cell lines, 1 μmol/L, 16 hours, FIG. 1. Here is the method:
In order to examine whether Compound 1 forms a complex between PDE3A and SLFN12, a binding confirmation experiment using immunoprecipitation was performed. PFSK-1 and HeLa which are cell lines expressing PDE3A and SLFN12 were treated with Compound 1 (1 μmol/L) for 16 hours, and then immunoprecipitated using anti-PDE3A antibody.

For assay [2], the system named is Bone marrow-derived CD34-positive cells (CD41-positive megakaryocytes). Description: Inhibition of differentiation from CD34-positive cells toward megakaryocytes (HemaTox Megakaryocyte Kit, flow cytometry). The settings on record: 240 h, cultured 10 days, three donors. Here is the method: It was studied whether Compound 1 inhibits the differentiation from CD34-positive cells toward megakaryocytes. Bone marrow-derived CD34-positive cells were cultured for 10 days in the presence and absence of Compound 1 in megakaryocyte differentiation medium (HemaTox™ Megakaryocyte Kit, STEMCELL™ Technologies) according to the kit's instruction. The number of the CD41-positive megakaryocytes was counted by flow cytometry and the cell viability relative to the untreated cell group was calculated. The test was conducted three times using CD34-positive cells derived from different donors, and the cell viability was determined with the control as 100%.

Assay [3] concerns Bone marrow-derived CD34-positive cells (CD71-positive and CD235-positive erythroid cells). Description: Differentiation from CD34-positive cells toward erythroblasts (HemaTox Erythroid Kit, flow cytometry). The settings on record: concentrations of 100 nmol/L or lower, cultured 7 days, two donors, FIG. 4. Here is the method: It was studied whether Compound 1 inhibits the differentiation from CD34-positive cells toward erythroblasts. Bone marrow-derived CD34-positive cells were cultured for 7 days in erythroid differentiation medium (HemaTox™ Erythroid Kit, STEMCELL™ Technologies) according to the kit's instruction. The number of the CD71-positive and CD235-positive erythroid cells were counted by flow cytometry and the cell viability relative to the untreated cell group was calculated. The test was conducted twice using CD34-positive cells derived from different donors, and the cell viability was determined with the control as 100%.

Assay [4] concerns SLFN12 protein. Description: Increase of SLFN12 protein (Western blot analysis). Particulars: 1 μmol/L, 16 hours, FIG. 2. Here is the method: In order to examine the effect of Compound 1 on the protein level of SLFN12, Western blot analysis was performed. PFSK-1, HeLa, or U-87 MG cell lines were treated with Compound 1 (1 μmol/L) for 16 hours, and SLFN12 protein in each test sample was detected.

In assay [5] the test system is Bone marrow-derived CD34-positive cells (CD13-positive and CD15-positive myeloid cells). Kind of assay: Differentiation from CD34-positive cells toward myeloid cells (HemaTox Myeloid Kit, flow cytometry). Particulars: cultured 7 days, two donors, FIG. 5. Here is the method:
It was studied whether Compound 1 inhibits the differentiation from CD34-positive cells toward myeloid cells. Bone marrow-derived CD34-positive cells were cultured for 7 days in myeloid differentiation medium (HemaTox™ Myeloid Kit, STEMCELL™ Technologies) according to the kit's instruction. The number of the CD13-positive and CD15-positive myeloid cells was counted by flow cytometry and the cell viability relative to the untreated cell group was calculated. The test was conducted twice using CD34-positive cells derived from different donors, and the cell viability was determined with the control as 100%.

Each structure is given as a SMILES string.

Regarding `C[C@@H]1CC(=O)NN=C1c1ccc(OCC(C)(C)O)c(F)c1F` [Compound 1, (R)-6-(2,3-difluoro-4-(2-hydroxy-2-methylpropoxy)phenyl)-5-methyl-4,5-dihydropyridazin-3(2H)-one], the “coprecipitation of SLFN12 with PDE3A (complex formation)” value in assay [1] is given as “coprecipitation with SLFN12 was confirmed”. The minimal effective concentration in assay [2] (FIG. 3, read-out: concentration that significantly decreased the number of CD41-positive megakaryocytes) was at least 0.003 µM. Moreover, the IC50 in assay [2] (control as 100%, 95% confidence interval 10.3-23.7 nmol/L, read-out: 50% inhibitory concentration (IC50), number of CD41-positive megakaryocytes) turned out to be 0.017 µM. Also, the “effect on differentiation from hematopoietic stem cells toward erythroid cells” value in assay [3] is reported as “did not affect”. For the same molecule, the “SLFN12 protein level compared to untreated” value is given as “increased SLFN12 protein levels were observed” in assay [4] (PFSK-1 or HeLa (highly expresses PDE3A)) and “no significant, Compound 1-dependent increase in SLFN12 protein level was observed” in assay [4] (U-87 MG (hardly expresses PDE3A)). In addition, the “effect on differentiation from hematopoietic stem cells toward myeloid cells” value is on record as “inhibited” in assay [5] (30 nmol/L) and “no significant difference” in assay [5] (100 nmol/L). Besides, the “concentration dependence of the effect on differentiation toward myeloid cells” value in assay [5] is “no concentration-dependent inhibitory effect”.
